Reference: ChEMBL document CHEMBL1201862, “PubChem BioAssay data set” (2004)
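Grown in 96-well plates, cells were treated for 48 hours with each compound at five concentrations. Insufficient inhibition: endpoint recorded as highest concentration tested. At the GI50, growth is halved.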 The source made the active and inactive calls. No stated cut-off is given here; in the data, active = GI50 up to about 1.1 µM and inactive = higher.

Experiments:
Experiment in all cases: NCI tumour cell line growth inhibition, 48 h
SF-539 = tested on: SF-539
A549 = tested on: A549
UO-31 = tested on: UO-31
SW-620 = tested on: SW-620
RPMI-8226 = tested on: RPMI-8226
OVCAR-3 = tested on: OVCAR-3
786-0 = tested on: 786-0
TK-10 = tested on: TK-10
OVCAR-5 = tested on: OVCAR-5
M14 = tested on: M14
MOLT-4 = tested on: MOLT-4
KM-20L2 = tested on: KM-20L2
SF-295 = tested on: SF-295
NCI-H226 = tested on: NCI-H226
OVCAR-8 = tested on: OVCAR-8
HL-60 = tested on: HL-60
KM12 = tested on: KM12
XF498 = tested on: XF498
OVCAR-4 = tested on: OVCAR-4
LOX IMVI = tested on: LOX IMVI
SK-MEL-5 = tested on: SK-MEL-5
DMS-273 = tested on: DMS-273
SNB-78 = tested on: SNB-78
SK-MEL-28 = tested on: SK-MEL-28
UACC-257 = tested on: UACC-257
HOP-92 = tested on: HOP-92
ACHN = tested on: ACHN
SK-OV-3 = tested on: SK-OV-3
IGROV-1 = tested on: IGROV-1
RXF 631 = tested on: RXF 631
SNB-19 = tested on: SNB-19
M19-MEL = tested on: M19-MEL
NCI-H23 = tested on: NCI-H23
U-251 = tested on: U-251
HCC 2998 = tested on: HCC 2998
HOP-18 = tested on: HOP-18
SNB-75 = tested on: SNB-75
HCT-116 = tested on: HCT-116
NCI-H460 = tested on: NCI-H460
HT-29 = tested on: HT-29
RXF 393 = tested on: RXF 393
SF-268 = tested on: SF-268
CAKI-1 = tested on: CAKI-1
NCI-H522 = tested on: NCI-H522
SR = tested on: SR
DLD-1 = tested on: DLD-1
DMS-114 = tested on: DMS-114
COLO 205 = tested on: COLO 205
LXFL 529 = tested on: LXFL 529
EKVX = tested on: EKVX
HOP-62 = tested on: HOP-62
CCRF-CEM = tested on: CCRF-CEM
SK-MEL-2 = tested on: SK-MEL-2
UACC-62 = tested on: UACC-62
SN12C = tested on: SN12C
K562 = tested on: K562
HCT-15 = tested on: HCT-15
A498 = tested on: A498
Malme-3M = tested on: Malme-3M

Structure (SMILES): O=C(CCCCCCCCCCc1ccccc1)C1=C(O)CC(O)CC1=O (centres undefined)
- GI50 (SF-539): 86.7 µM (inactive)
- GI50 (A549): 42.1 µM (inactive)
- GI50 (UO-31): 60.5 µM (inactive)
- GI50 (SW-620): 76.9 µM (inactive)
- GI50 (RPMI-8226): 34.8 µM (inactive)
- GI50 (OVCAR-3): 52.6 µM (inactive)
- GI50 (786-0): 58.1 µM (inactive)
- GI50 (TK-10): 64.6 µM (inactive)
- GI50 (OVCAR-5): 39.5 µM (inactive)
- GI50 (M14): 59.8 µM (inactive)
- GI50 (MOLT-4): 40.5 µM (inactive)
- GI50 (KM-20L2): 55 µM (inactive)
- GI50 (SF-295): 56.8 µM (inactive)
- GI50 (NCI-H226): 24 µM (inactive)
- GI50 (OVCAR-8): 49.7 µM (inactive)
- GI50 (HL-60): 20.7 µM (inactive)
- GI50 (KM12): 38.4 µM (inactive)
- GI50 (XF498): > 100 µM (inactive)
- GI50 (OVCAR-4): 74.3 µM (inactive)
- GI50 (LOX IMVI): 48.2 µM (inactive)
- GI50 (SK-MEL-5): 48 µM (inactive)
- GI50 (DMS-273): 48 µM (inactive)
- GI50 (SNB-78): > 100 µM (inactive)
- GI50 (SK-MEL-28): 72.4 µM (inactive)
- GI50 (UACC-257): 63.1 µM (inactive)
- GI50 (HOP-92): 33.3 µM (inactive)
- GI50 (ACHN): 58.5 µM (inactive)
- GI50 (SK-OV-3): > 100 µM (inactive)
- GI50 (IGROV-1): 72.4 µM (inactive)
- GI50 (RXF 631): 56.8 µM (inactive)
- GI50 (SNB-19): 88.5 µM (inactive)
- GI50 (M19-MEL): 53.3 µM (inactive)
- GI50 (NCI-H23): 56.4 µM (inactive)
- GI50 (U-251): 55.1 µM (inactive)
- GI50 (HCC 2998): 34.9 µM (inactive)
- GI50 (HOP-18): > 100 µM (inactive)
- GI50 (SNB-75): > 100 µM (inactive)
- GI50 (HCT-116): 43.3 µM (inactive)
- GI50 (NCI-H460): 46.3 µM (inactive)
- GI50 (HT-29): 47.6 µM (inactive)
- GI50 (RXF 393): > 100 µM (inactive)
- GI50 (SF-268): > 100 µM (inactive)
- GI50 (CAKI-1): 94.4 µM (inactive)
- GI50 (NCI-H522): 33.4 µM (inactive)
- GI50 (SR): 40.9 µM (inactive)
- GI50 (DLD-1): 80.4 µM (inactive)
- GI50 (DMS-114): 35.5 µM (inactive)
- GI50 (COLO 205): 45.2 µM (inactive)
- GI50 (LXFL 529): 53.3 µM (inactive)
- GI50 (EKVX): 81.1 µM (inactive)
- GI50 (HOP-62): > 100 µM (inactive)
- GI50 (CCRF-CEM): 45.1 µM (inactive)
- GI50 (SK-MEL-2): 25.4 µM (inactive)
- GI50 (UACC-62): 59.8 µM (inactive)
- GI50 (SN12C): 96.2 µM (inactive)
- GI50 (K562): 30.5 µM (inactive)

Structure (SMILES): Cc1nc(N)nc(CCC(=O)Nc2cccc(C(F)(F)F)c2)c1-c1ccc(Cl)cc1
- GI50 (SF-539): > 100 µM (inactive)
- GI50 (A549): > 100 µM (inactive)
- GI50 (UO-31): > 100 µM (inactive)
- GI50 (SW-620): > 100 µM (inactive)
- GI50 (RPMI-8226): > 100 µM (inactive)
- GI50 (OVCAR-3): > 100 µM (inactive)
- GI50 (786-0): > 100 µM (inactive)
- GI50 (TK-10): > 100 µM (inactive)
- GI50 (OVCAR-5): > 100 µM (inactive)
- GI50 (M14): > 100 µM (inactive)
- GI50 (MOLT-4): > 100 µM (inactive)
- GI50 (KM-20L2): > 100 µM (inactive)
- GI50 (SF-295): > 100 µM (inactive)
- GI50 (NCI-H226): > 100 µM (inactive)
- GI50 (OVCAR-8): > 100 µM (inactive)
- GI50 (HL-60): > 100 µM (inactive)
- GI50 (KM12): > 100 µM (inactive)
- GI50 (XF498): > 100 µM (inactive)
- GI50 (OVCAR-4): > 100 µM (inactive)
- GI50 (SK-MEL-5): > 100 µM (inactive)
- GI50 (DMS-273): > 100 µM (inactive)
- GI50 (SNB-78): > 100 µM (inactive)
- GI50 (SK-MEL-28): > 100 µM (inactive)
- GI50 (HCT-15): > 100 µM
- GI50 (UACC-257): > 100 µM (inactive)
- GI50 (HOP-92): > 100 µM (inactive)
- GI50 (ACHN): > 100 µM (inactive)
- GI50 (SK-OV-3): > 100 µM (inactive)
- GI50 (IGROV-1): > 100 µM (inactive)
- GI50 (RXF 631): > 100 µM (inactive)
- GI50 (SNB-19): > 100 µM (inactive)
- GI50 (M19-MEL): > 100 µM (inactive)
- GI50 (NCI-H23): > 100 µM (inactive)
- GI50 (U-251): > 100 µM (inactive)
- GI50 (HCC 2998): > 100 µM (inactive)
- GI50 (HOP-18): > 100 µM (inactive)
- GI50 (SNB-75): > 100 µM (inactive)
- GI50 (HCT-116): > 100 µM (inactive)
- GI50 (NCI-H460): > 100 µM (inactive)
- GI50 (HT-29): > 100 µM (inactive)
- GI50 (A498): > 100 µM (inactive)
- GI50 (RXF 393): > 100 µM (inactive)
- GI50 (SF-268): > 100 µM (inactive)
- GI50 (CAKI-1): > 100 µM (inactive)
- GI50 (Malme-3M): > 100 µM (inactive)
- GI50 (NCI-H522): > 100 µM (inactive)
- GI50 (SR): 21.6 µM (inactive)
- GI50 (DLD-1): > 100 µM (inactive)
- GI50 (DMS-114): > 100 µM (inactive)
- GI50 (COLO 205): > 100 µM (inactive)
- GI50 (LXFL 529): > 100 µM (inactive)
- GI50 (EKVX): > 100 µM (inactive)
- GI50 (HOP-62): > 100 µM (inactive)
- GI50 (CCRF-CEM): > 100 µM (inactive)
- GI50 (SK-MEL-2): > 100 µM (inactive)
- GI50 (UACC-62): > 100 µM (inactive)
- GI50 (SN12C): > 100 µM (inactive)
- GI50 (K562): > 100 µM (inactive)
